The values that follow are results of earlier work, collected in patent publication US20190105343A1, “Treatment of Skin Conditions and Diseases Associated with Microbial Biofilms” (Bioclenz PH LLC, priority 2016, published 2019).

Each structure is given as a SMILES string. Converted amounts (≈) assume the structure as drawn.

The conditions of data set [1]: aqueous solutions at 37° C.
Data set [2] relates to aerobic and anaerobic gram-positive bacteria. To be noted: broth and biofilm cultures.
Data set [3] concerns Pseudomonas aeruginosa. The note with it: pH 5.0-6.0.
The test system of data set [4] is Gram-negative anaerobes.

For `CCCCCCCCCCCC(=O)OCC(O)CO` (stereo not shown) [GML, glycerol monolaurate], in data set [1], the solubility limit is 100 µg/mL (≈ 364 µM). Besides, the bactericidal activity result in data set [2] is listed as “bactericidal”. Besides, the killing result in data set [3] is “killed”. For the same compound, the susceptibility entry in data set [4] is “susceptible”.
